# Source: patent US11098035B2, “Compounds, compositions, and methods for increasing CFTR activity” (Proteostasis Therapeutics, Inc., priority 2014, dated 2021)
# Target: T1, ΔF508-CFTR (Homo sapiens, UniProt P13569, DEL508-508)
# T1 construct: Primary lung epithelial cells homozygous for the Cystic Fibrosis-causing ΔF508 mutation were differentiated for a minimum of 4 weeks; endogenous in cells; host or cells: primary human bronchial (lung) epithelial cells (hBE) homozygous for ΔF508, differentiated at an air-liquid interface
# T1 sequence (P13569 with tags, fused parts or gaps DEL508-508): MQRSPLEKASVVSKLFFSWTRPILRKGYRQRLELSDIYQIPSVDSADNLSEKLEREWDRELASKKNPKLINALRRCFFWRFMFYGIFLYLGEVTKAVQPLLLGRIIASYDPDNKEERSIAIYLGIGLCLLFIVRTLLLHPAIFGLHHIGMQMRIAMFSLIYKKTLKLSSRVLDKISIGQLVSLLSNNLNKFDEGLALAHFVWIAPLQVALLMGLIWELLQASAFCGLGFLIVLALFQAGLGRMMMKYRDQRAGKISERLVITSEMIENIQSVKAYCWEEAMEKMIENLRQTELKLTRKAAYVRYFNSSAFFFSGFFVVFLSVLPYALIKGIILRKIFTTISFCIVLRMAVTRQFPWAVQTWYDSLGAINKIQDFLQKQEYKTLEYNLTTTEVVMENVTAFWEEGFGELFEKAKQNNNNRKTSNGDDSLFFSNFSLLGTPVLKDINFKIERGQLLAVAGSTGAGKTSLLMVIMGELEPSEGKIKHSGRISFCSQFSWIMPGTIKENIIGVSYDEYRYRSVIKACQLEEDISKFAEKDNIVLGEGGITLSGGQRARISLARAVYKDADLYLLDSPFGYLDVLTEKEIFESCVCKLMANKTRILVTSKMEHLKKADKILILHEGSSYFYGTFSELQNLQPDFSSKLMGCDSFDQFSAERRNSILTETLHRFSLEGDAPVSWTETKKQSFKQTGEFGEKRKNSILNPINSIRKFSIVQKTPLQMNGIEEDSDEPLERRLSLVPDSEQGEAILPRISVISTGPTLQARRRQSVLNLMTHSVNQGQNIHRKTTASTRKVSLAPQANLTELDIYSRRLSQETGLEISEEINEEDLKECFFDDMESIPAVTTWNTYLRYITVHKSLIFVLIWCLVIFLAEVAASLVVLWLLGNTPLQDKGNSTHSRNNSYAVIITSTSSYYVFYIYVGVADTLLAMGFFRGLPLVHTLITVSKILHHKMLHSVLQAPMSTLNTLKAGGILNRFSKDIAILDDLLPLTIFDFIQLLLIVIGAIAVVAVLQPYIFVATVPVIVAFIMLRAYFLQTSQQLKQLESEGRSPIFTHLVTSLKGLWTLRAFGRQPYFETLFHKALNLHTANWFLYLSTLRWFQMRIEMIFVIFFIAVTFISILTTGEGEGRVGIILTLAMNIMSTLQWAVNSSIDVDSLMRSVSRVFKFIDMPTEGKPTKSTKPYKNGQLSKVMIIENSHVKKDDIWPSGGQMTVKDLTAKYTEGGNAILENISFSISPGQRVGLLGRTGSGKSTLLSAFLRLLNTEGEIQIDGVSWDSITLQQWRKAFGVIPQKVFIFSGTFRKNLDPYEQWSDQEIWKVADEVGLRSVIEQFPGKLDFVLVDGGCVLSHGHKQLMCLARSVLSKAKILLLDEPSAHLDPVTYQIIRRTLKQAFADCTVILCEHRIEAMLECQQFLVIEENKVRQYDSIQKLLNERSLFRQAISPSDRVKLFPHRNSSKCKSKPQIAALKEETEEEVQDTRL
# Experiment: hBE Equivalent Current (Ieq) Assay
# Format: cell-based
# Details: compound at 10 uM and VX-809 at 1 uM, activity as % of VX-809 (1 uM); AUC of equivalent chloride current; primary lung epithelial cells homozygous for ΔF508, 24 h treatment
# Method: Primary lung epithelial cells homozygous for the Cystic Fibrosis-causing ΔF508 mutation were differentiated for a minimum of 4 weeks in an air-liquid interface on Costar 24 well HTS filter plates prior to the equivalent current (Ieq) measurements. Cells were apically mucus-washed for 30 minutes 24 h prior to treatment with compounds. The basolateral media was removed and replaced with media containing the compound of interest diluted to its final concentration from DMSO stocks. Treated cells were incubated at 37° C. and 5% CO2 for 24 hours. At the end of the treatment period, the media was changed to the Ieq experimental solution for 30 minutes before the experiment and plates are maintained in a CO2-free incubator during this period. The plates containing the cells were then placed in pre-warmed heating blocks at 36° C.±0.5 for 15 minutes before measurements are taken. The transepithelial voltage (VT) and conductance (GT) were measured using a custom 24 channel current clamp (TECC-24) with 24 well electrode manifold. The Ieq assay measurements were made following additions with standardized time periods: • 1. The baseline VT and GT values were measured for approximately 20 minutes. • 2. Benzamil was added to block ENaC for 15 minutes. • 3. Forskolin plus VX-770 were added to maximally activate ΔF508-CFTR for 27 minutes. • 4. Bumetanide was added to inhibit the NaK2Cl cotransporter and shut-off secretion of chloride.
# The activity data captured was the area under the curve (AUC) for the traces of the equivalent chloride current. The AUC was collected from the time of the forskolin/VX-770 addition until the inhibition by bumetanide addition. Correction in response to compound treatment was scored as the increase in the AUC for compound-treated samples over that of vehicle-treated samples.
# The results are shown below in Table 2. ++ indicates activity ≥25% run at 10 uM of VX-809 at 1 uM, + indicates activity 10 to <25% run at 10 uM of VX-809 at 1 uM, **indicates activity ≥200% of VX-809 (1 uM) with compound at 10 uM and VX-809 at 1 uM; * indicates activity 100-200% of VX-809 (1 uM) with compound at 10 uM and VX-809 at 1 uM. ^## indicates activity ≥200% of VX-809 (3 uM) with compound at 10 uM and VX-809 at 3 uM; ^# indicates activity 100-200% of VX-809 (3 uM) with compound at 10 uM and VX-809 at 3 uM.
row,SMILES,Ieq
1,"O=C(NC1CC1)c1cc(-c2ccccc2)co1 [Example 12, N-cyclopropyl-4-phenylfuran-2-carboxamide]",* (* indicates activity 100-200% of VX-809 (1 uM) with compound at 10 uM and VX-809 at 1 uM)
2,"C[C@@H](O)c1nnc(CC2CC(NC(=O)c3cc(-c4ccccc4)no3)C2)o1 (stereo partly drawn) [Example 37, N-((1S,3s)-3-((5-((R)-1-hydroxyethyl)-1,3,4-oxadiazol-2-yl)methyl)cyclobutyl)-3-phenylisoxazole-5-carboxamide]",** (**indicates activity ≥200% of VX-809 (1 uM) with compound at 10 uM and VX-809 at 1 uM)
3,"CN1CCC(N2CC(c3nnc(C4CC(NC(=O)c5cc(-c6ccccc6)no5)C4)o3)C2)CC1 (stereo not drawn) [Example 24, N-cis-(3-(5-(1-(1-methylpiperidin-4-yl)azetidin-3-yl)-1,3,4-oxadiazol-2-yl)cyclobutyl)-3-phenylisoxazole-5-carboxamide]",* (* indicates activity 100-200% of VX-809 (1 uM) with compound at 10 uM and VX-809 at 1 uM)
4,"O=C(N[C@H]1C[C@@H](n2nncc2CO)C1)c1cc(-c2ccccc2)no1 [Example 28, N-(cis-3-(5-(hydroxymethyl)-1H-1,2,3-triazol-1-yl)cyclobutyl)-3-phenylisoxazole-5-carboxamide]",** (**indicates activity ≥200% of VX-809 (1 uM) with compound at 10 uM and VX-809 at 1 uM)
5,"C[C@H](O)c1cnnn1C[C@H]1C[C@@H](NC(=O)c2cc(-c3ccccc3)no2)C1 [Example 57, 3-Phenyl-N-[(1s,3s)-3-([5-[(1S)-1-hydroxyethyl]-1H-1,2,3-triazol-1-yl]methyl)cyclobutyl]-1,2-oxazole-5-carboxamide]",** (**indicates activity ≥200% of VX-809 (1 uM) with compound at 10 uM and VX-809 at 1 uM)
6,"C[C@@H](O)c1nnc(C[C@H]2C[C@@H](NC(=O)c3cc(-c4cccs4)no3)C2)o1 [Example 45, N-[(1s,3s)-3-([5-[(1R)-1-Hydroxyethyl]-1,3,4-oxadiazol-2-yl]methyl)cyclobutyl]-3-(thiophen-2-yl)-1,2-oxazole-5-carboxamide]",* (* indicates activity 100-200% of VX-809 (1 uM) with compound at 10 uM and VX-809 at 1 uM)
7,"O=C(N[C@H]1C[C@H](c2nnc(C3CS(=O)(=O)C3)o2)C1)c1cc(-c2ccccc2)no1 [Example 23, N-(trans-3-(5-(1,1-dioxidothietan-3-yl)-1,3,4-oxadiazol-2-yl)cyclobutyl)-3-phenylisoxazole-5-carboxamide]",* (* indicates activity 100-200% of VX-809 (1 uM) with compound at 10 uM and VX-809 at 1 uM)
8,"CO[C@H](C)c1nnc([C@H]2C[C@H](NC(=O)c3cc(-c4ccccc4)no3)C2)o1 [Example 14, N-(trans-3-(5-((R)-1-methoxyethyl)-1,3,4-oxadiazol-2-yl)cyclobutyl)-3-phenylisoxazole-5-carboxamide]",* (* indicates activity 100-200% of VX-809 (1 uM) with compound at 10 uM and VX-809 at 1 uM)
9,"C[C@@H](OCC1CN(C)C1)c1nnc([C@H]2C[C@H](NC(=O)c3cc(-c4ccccc4)no3)C2)o1 [Example 20, N-(trans-3-(5-((R)-1-((1-methylazetidin-3-yl)methoxy)ethyl)-1,3,4-oxadiazol-2-yl)cyclobutyl)-3-phenylisoxazole-5-carboxamide]",* (* indicates activity 100-200% of VX-809 (1 uM) with compound at 10 uM and VX-809 at 1 uM)
10,"CC(OCC(F)(F)F)c1nnc(C2CC(NC(=O)c3cc(-c4ccccc4)no3)C2)o1 (single isomer, unassigned) [Example 15]",* (* indicates activity 100-200% of VX-809 (1 uM) with compound at 10 uM and VX-809 at 1 uM)
11,"Cn1nccc1CCCNC(=O)c1cc(-c2ccccc2)no1 [Example 7, N-(3-(1-methyl-1H-pyrazol-5-yl)propyl)-3-phenylisoxazole-5-carboxamide]",* (* indicates activity 100-200% of VX-809 (1 uM) with compound at 10 uM and VX-809 at 1 uM)
12,"C[C@@H](O)c1nnc([C@H]2C[C@H](NC(=O)c3onc(-c4ccccc4)c3F)C2)o1 [Example 50, 4-Fluoro-3-phenyl-N-[(1r,3r)-3-[5-[(1R)-1-hydroxyethyl]-1,3,4-oxadiazol-2-yl]cyclobutyl]-1,2-oxazole-5-carboxamide]",* (* indicates activity 100-200% of VX-809 (1 uM) with compound at 10 uM and VX-809 at 1 uM)
13,"O=C(N[C@H]1C[C@@H](n2cc(CO)nn2)C1)c1cc(-c2ccccc2)no1 [Example 29, N-(cis-3-(4-(hydroxymethyl)-1H-1,2,3-triazol-1-yl)cyclobutyl)-3-phenylisoxazole-5-carboxamide]",** (**indicates activity ≥200% of VX-809 (1 uM) with compound at 10 uM and VX-809 at 1 uM)
14,"C[C@@H](O)c1nnc(CC2CC(NC(=O)c3cc(-c4ccc(F)cc4)no3)C2)o1 (stereo partly drawn) [Example 40, 3-(4-Fluorophenyl)-N-[(1r,3r)-3-([5-[(1R)-1-hydroxyethyl]-1,3,4-oxadiazol-2-yl]methyl)cyclobutyl]-1,2-oxazole-5-carboxamide]",** (**indicates activity ≥200% of VX-809 (1 uM) with compound at 10 uM and VX-809 at 1 uM)
15,"O=C(NC1CC(c2nnc(C3COC3)o2)C1)c1cc(-c2ccccc2)no1 (stereo not drawn) [Example 22, N-trans-3-(5-(oxetan-3-yl)-1,3,4-oxadiazol-2-yl)cyclobutyl)-3-phenylisoxazole-5-carboxamide]",* (* indicates activity 100-200% of VX-809 (1 uM) with compound at 10 uM and VX-809 at 1 uM)
16,"C[C@H](O)c1cn(C[C@H]2C[C@@H](NC(=O)c3cc(-c4ccccc4)no3)C2)nn1 [Example 58, 3-Phenyl-N-[(1s,3s)-3-([4-[(1S)-1-hydroxyethyl]-1H-1,2,3-triazol-1-yl]methyl)cyclobutyl]-1,2-oxazole-5-carboxamide]",* (* indicates activity 100-200% of VX-809 (1 uM) with compound at 10 uM and VX-809 at 1 uM)
17,"C[C@@H](O)c1nnc(C[C@H]2C[C@H](NC(=O)c3cc(-c4cccs4)no3)C2)o1 [Example 46, N-[(1r,3r)-3-([5-[(1R)-1-Hydroxyethyl]-1,3,4-oxadiazol-2-yl]methyl)cyclobutyl]-3-(thiophen-2-yl)-1,2-oxazole-5-carboxamide]",* (* indicates activity 100-200% of VX-809 (1 uM) with compound at 10 uM and VX-809 at 1 uM)
18,"C[C@@H](O)c1nnc([C@H]2C[C@H](NC(=O)c3cc(-c4ccc(F)cc4)no3)C2)o1 [Example 36, 3-(4-fluorophenyl)-N-(trans-3-(5-((R)-1-hydroxyethyl)-1,3,4-oxadiazol-2-yl)cyclobutyl)isoxazole-5-carboxamide]",* (* indicates activity 100-200% of VX-809 (1 uM) with compound at 10 uM and VX-809 at 1 uM)
19,"O=C(N[C@H]1C[C@H](c2nnc(C3CN(CC4CCC4)C3)o2)C1)c1cc(-c2ccccc2)no1 [Example 27, N-(trans-3-(5-(1-(cyclobutylmethyl)azetidin-3-yl)-1,3,4-oxadiazol-2-yl)cyclobutyl)-3-phenylisoxazole-5-carboxamide]",* (* indicates activity 100-200% of VX-809 (1 uM) with compound at 10 uM and VX-809 at 1 uM)

# Same assay, conditions: compound run at 10 uM, activity relative to VX-809 at 1 uM; AUC of equivalent chloride current; primary lung epithelial cells homozygous for ΔF508, 24 h treatment
row,SMILES,Ieq
1,"O=C(NC1CC1)c1cc(-c2ccccc2)co1 [Example 12, N-cyclopropyl-4-phenylfuran-2-carboxamide]",++ (++ indicates activity ≥25% run at 10 uM of VX-809 at 1 uM)
2,"O=C(NCCCn1ccnc1)c1cc(-c2ccccc2)co1 [Example 11, N-(3-(1H-imidazol-1-yl)propyl)-4-phenylfuran-2-carboxamide]",++ (++ indicates activity ≥25% run at 10 uM of VX-809 at 1 uM)
3,"O=C(NCCN1CCOCC1)c1cc(-c2ccccc2)no1 [Example 3, N-(2-morpholinoethyl)-3-phenylisoxazole-5-carboxamide]",++ (++ indicates activity ≥25% run at 10 uM of VX-809 at 1 uM)
4,"O=C(NCCCn1ccnc1)c1cc(-c2ccccc2)no1 [Example 4, N-(3-(1H-imidazol-1-yl)propyl)-3-phenylisoxazole-5-carboxamide]",+ (+ indicates activity 10 to <25% run at 10 uM of VX-809 at 1 uM)
5,"Cn1nccc1CCCNC(=O)c1cc(-c2ccccc2)no1 [Example 7, N-(3-(1-methyl-1H-pyrazol-5-yl)propyl)-3-phenylisoxazole-5-carboxamide]",++ (++ indicates activity ≥25% run at 10 uM of VX-809 at 1 uM)
6,"COCCNC(=O)c1cc(-c2ccccc2)no1 [Example 1, N-(2-methoxyethyl)-3-phenylisoxazole-5-carboxamide]",++ (++ indicates activity ≥25% run at 10 uM of VX-809 at 1 uM)
7,"COCCNC(=O)c1cc(-c2ccccc2)co1 [Example 8, N-(2-methoxyethyl)-4-phenylfuran-2-carboxamide]",+ (+ indicates activity 10 to <25% run at 10 uM of VX-809 at 1 uM)
8,"O=C(NCC1CCCO1)c1cc(-c2ccccc2)co1 (stereo not drawn) [Example 9, 4-phenyl-N-((tetrahydrofuran-2-yl)methyl)furan-2-carboxamide]",++ (++ indicates activity ≥25% run at 10 uM of VX-809 at 1 uM)
